The record followed here is paper PMC5602538, “Assessment of the Drug Interaction Potential of Unconjugated and GalNAc3-Conjugated 2′-MOE-ASOs” (Molecular Therapy. Nucleic Acids, 2017).

{GalNAc3} = trishexylamino-C6 triantennary GalNAc conjugate; e = 2'-O-(2-methoxyethyl) (MOE); d = 2'-deoxy (DNA) A value given as a limit tells only on which side of the number the result lay.

Holding throughout (assay type): in vitro ADME
The subject of data set [1] is OAT1, OAT3, OCT1, OCT2, OATP1B1, OATP1B3, BCRP, P-gp, and BSEP. Description: Inhibition studies of major SLC and ABC transporters, all transporters evaluated. The following applies: 100 μM ASO. On the procedure: (§1) A 96-well cell culture plate containing a monolayer of MDCK-II cells grown on a permeable support and a corresponding receiver tray was used. The basolateral compartment of the culture plate and wells were washed with warm HBSS three times, with wells of the culture plate serving as the apical compartment. The wash was aspirated by adding 150 μL of 37°C HBSS to both compartments. Plates were incubated at 37°C with orbital shaking at 60 rpm for 15 min for OAT1, OAT3, OCT1, OCT2, OATP1B1, and OATP1B3 (±5 min). The pre-incubation buffer from both compartments was aspirated and 150 μL of the following was added to the basal compartment. For the probe substrate transport assay, HBSS in each well contained one of following probe substrates (positive control for transport), OCT1, 2 μM [^3H]-MPP^+; OCT2, 10 μM [^14C]-metformin; OAT1, 2 μM [^3H]-p-aminohippurate; OAT3, 10 μM [^3H]-p-aminohippurate; OATP1B1, 2 μM [^3H]-estradiol-17 β-D-glucuronide; and OATP1B3, 2 μM [^3H]-cholecystokinin octapeptide (CCK-8). […] Inhibition studies contained HBSS in each well, the probe substrate, and 100 μM of each test article, whereas substrate studies contained HBSS in each well and 10 μM of each test article. Plates were incubated at 37°C with orbital shaking at 60 rpm for 5 min. Both sides of the permeable support were washed four times with ice-cold PBS and 60 μL of cell extraction solution was added to each well. Plates were agitated for 15 min at 120 rpm, after which a 30-μL sample of the extract was collected. Samples containing probe substrate were added to 200 μL of scintillation fluid and counted on a 1450 Microbeta (PerkinElmer), whereas samples containing the test article were kept frozen. Test article concentrations, including control samples, were evaluated by an LC-MS method.
MDCK-MDR1 cells and MDCK-II cells transfected with BCRP were washed with HBSS at 37°C. Wells of the culture plate served as the apical compartment, and 150 μL of HBSS solutions was added to the apical wells. […]

A further data set concerns human hepatocytes. Description: Hepatocyte uptake (cell pellet and supernatant concentrations by LC-UV/MS). The following applies: for Cellular concentration in hepatocytes: test concentration of 1.00 μM. As for the experimental part:
A time-course experiment was conducted in triplicate for each concentration of test compound for 0, 30, 60, and 120 min incubations at 37°C with 5% CO2. At the end of each respective time point, the cell suspensions were centrifuged for 8 min at a speed of 50 × g, and the supernatant from each sample was collected. The cell pellets were washed by resuspension in Williams’ Medium E, followed by centrifugation at 50 × g for 8 min. The supernatant from the wash step was discarded and the remaining cell pellets were kept for analysis. Cell pellets and respective supernatants were measured for the presence of ASO by LC-MS.
Samples were analyzed using a tandem LC-UV/MS method. A total of 72 samples per ASO, corresponding to human hepatocyte cells and supernatant fractions, was assayed. Samples, curves, and controls (QCs) were aliquoted into 96-well plates and internal standard was added. Aliquots in 96-well plates were extracted via a liquid-liquid extraction using ammonium hydroxide and phenol:chloroform:isoamyl alcohol (25:24:1). The aqueous layer was then further processed via solid phase extraction (Phenomenex, Strata X SPE), and then dried down under nitrogen and reconstituted in 140 μL of water containing 100 μM EDTA. Samples were then injected onto an Agilent 6130 LC-MS system for analysis. Two curves were created for quantitation, one utilizing UV absorbance at 260 nm and an additional curve using single ion monitoring data from the mass spectrometer. The calibration range using the MS detector was 0.0640–641 μM with liver homogenate, as used to quantitate the concentration in hepatocyte pellet samples. A minimum signal-to-noise ratio of 5:1 was used to distinguish ASO peaks from background noise. […] Acceptance criteria for calibration and QC standards were set to 85%–115% of nominal values. For the MS, three QC levels were run in triplicate at 1.60 μM, 160 μM, and 481 μM and eight of the nine QCs passed. For the UV, three QC levels were run in triplicate at 160 μM, 481 μM, and 3,205 μM and all QCs passed. All samples were stored at −70°C ± 10°C upon receipt. Hepatocyte cell count conversion to μM liver weight equivalent was calculated by converting the number of hepatocytes per sample to the liver weight equivalent: [(0.1 × 10^6 cells per sample)/128 × 10^6 cells/g)] × […] = 0.78 mg, where 1 g of liver contains 128 × 10^6 cells/g. Supernatant concentrations are calculated assuming a 100% recovery and that 1 mL William E Medium is equal to 1 g. The calibration range for ASOs in transporter studies was 0.01–10 μM in 100 μL for RLT buffer and 0.005–10 μM in 100 μL for HBSS buffer.

The next data set concerns T1, OATP1B1.
T1 construct: expressed in transfected cells; host or cells: MDCK-II
Description: OATP1B1 substrate uptake study in MDCK cells. The following applies: 10 μM ASO. On the procedure:
as §1, with “Plates were incubated at 37°C with orbital shaking at 60 rpm for 5 min. Both sides of the permeable support were washed four times with ice-cold PBS and 60 μL of cell extraction solution was added to each well. Plates were agitated for 15 min at 120 rpm, after which a 30-μL sample of the extract was collected.” left out
(§2) Signal to noise for probe substrates was calculated by dividing the uptake of the probe substrate in transporter-expressing cells by the uptake of probe substrate in control cells not expressing the transporter of interest. Percent inhibition was calculated by dividing the net-transporter-mediated substrate uptake in the presence of the test article or the reference inhibitor by the net-transporter-mediated substrate uptake in the absence of the inhibitor according to the equation: %inhibition=100−(100×(transporter-mediateduptake)withinhibitor/(transporter-mediateduptake)withoutinhibitor).

Another data set concerns T2, OCT1.
T2 construct: expressed in transfected cells; host or cells: MDCK-II
Description: OCT1 substrate uptake study in MDCK cells. The following applies: 10 μM ASO. As for the experimental part:
as §1, with “Plates were incubated at 37°C with orbital shaking at 60 rpm for 5 min. Both sides of the permeable support were washed four times with ice-cold PBS and 60 μL of cell extraction solution was added to each well. Plates were agitated for 15 min at 120 rpm, after which a 30-μL sample of the extract was collected.” left out
as §2

Regarding “ISIS 681257: 20-mer 2′-MOE gapmer PS/PO mixed backbone ASO conjugated to 5′-trishexylamino GalNAc3, targets Lp(a), sequence TGCTCCGTTGGTGCTTGTTC (5' {GalNAc3}, sugars by position and backbone not given here; 2'-MOE gapmer with mixed PS/PO backbone)”, the “Inhibitor of BCRP, P-gp, OAT1, OAT3, OCT1, OCT2, OATP1B1, OATP1B3, or BSEP (conclusion)” value (“Inhibitor of BCRP, P-gp, OAT1, OAT3” below) in data set [1] was “not considered inhibitors”. Also, the results for the “Average cellular concentration in hepatocytes” value (shortened to “Average cellular concentration”) in the data set on human hepatocytes (after 30-min incubation) and with human hepatocytes (after 120-min incubation) were 14.0 µM and 50.6 µM, respectively. Moreover, the “Cellular concentration in hepatocytes” value was 0.626 µM with human hepatocytes (after 120 min of incubation) and “below the level of quantitation” in the data set on human hepatocytes (time points 0–60 min). Besides, the “OATP1B1-mediated uptake relative to corresponding controls” value with OATP1B1 is listed as less than 2 fold. Moreover, in the data set with OCT1, the “OCT1-mediated uptake relative to corresponding controls” value is less than 2 fold.

Take “ISIS 420915: 20-mer 2′-MOE gapmer PS backbone antisense inhibitor of transthyretin, sequence TCTTGGTTACATGAAATCCC (all phosphorothioate, sugars by position and methylation of C not given here; 2'-MOE gapmer)”: the “Inhibitor of BCRP, P-gp, OAT1, OAT3” value in data set [1] is “not considered inhibitors”. Also, the “Average cellular concentration” value with human hepatocytes (after 30-min incubation) came to 52.2 µM; with human hepatocytes (after 120-min incubation), 106 µM. Besides, the “OATP1B1-mediated uptake relative to corresponding controls” value with OATP1B1 was less than 2 fold. For the same substance, the “OCT1-mediated uptake relative to corresponding controls” value in the data set with OCT1 is less than 2 fold.

In the case of “ISIS 304801: 20-mer (5-10-5) 2′-MOE gapmer PS backbone antisense inhibitor of apoC-III, sequence AGCTTCTTGTCCAGCTTTAT (sugars from the 5' end e5 d10 e5, all phosphorothioate, methylation of C not given here)”, in data set [1], the “Inhibitor of BCRP, P-gp, OAT1, OAT3” value is listed as “not considered inhibitors”. The results for the “Average cellular concentration” value in the data set with human hepatocytes (after 30-min incubation) and in the data set with human hepatocytes (after 120-min incubation) were 56.3 µM and 140 µM, respectively. In the data set on OATP1B1, the “OATP1B1-mediated uptake relative to corresponding controls” value is given as less than 2 fold. The “OCT1-mediated uptake relative to corresponding controls” value with OCT1 is less than 2 fold.
